Measured values: patent publication US9302999B2, “Substituted triazoles as herbicides” (E. I. DU PONT DE NEMOURS AND COMPANY, priority 2012, dated 2016)

Key:
Type in all cases: in vivo
[1] = tested on: field violet (Viola arvensis); assay: Test D pre-/postemergence: field violet
In short: (§1)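 Visual 0–100 rating versus untreated controls (0 no effect, 100 complete control), taken 14 to 21 days after treatment in a controlled growth environment. Preemergence: silt loam soil. Postemergence: peat moss/vermiculite medium, plants 2 to 18 cm, 1- to 4-leaf stage. Solvent mixture with surfactant.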

[2] = tested on: deadnettle (henbit deadnettle, Lamium amplexicaule); assay: Test D pre-/postemergence: deadnettle
In short: as §1

[3] = tested on: chamomile (scentless chamomile, Matricaria inodora); assay: Test D pre-/postemergence: chamomile
Excerpt: (§2) Seeds of plant species selected from bluegrass (annual bluegrass, Poa annua), blackgrass (Alopecurus myosuroides), canarygrass (Phalaris minor), chickweed (common chickweed, Stellaria media), galium (catchweed bedstraw, Galium aparine), bromegrass, downy (downy bromegrass, Bromus tectorum), field poppy (Papaver rhoeas), field violet (Viola arvensis), foxtail, green (green foxtail, Setaria viridis), deadnettle (henbit deadnettle, Lamium amplexicaule), ryegrass, Italian (Italian ryegrass, Lolium multiflorum), kochia (Kochia scoparia), lambsquarters (Chenopodium album), oilseed rape (Brassica napus), pigweed (Amaranthus retroflexus), Russian thistle (Salsola iberica), chamomile (scentless chamomile, Matricaria inodora), speedwell (bird's-eye speedwell, Veronica persica), barley, spring (spring barley, Hordeum vulgare), wheat, spring (spring wheat, Triticum aestivum), buckwheat, wild (wild buckwheat, Polygonum convolvulus), mustard, wild (wild mustard, Sinapis arvensis), oat, wild (wild oat, Avena fatua), radish, wild (wild radish, Raphanus raphanistrum), windgrass (Apera spica-venti), barley, winter (winter barley, Hordeum vulgare), and wheat, winter (winter wheat, Triticum aestivum) were planted into a silt loam soil and treated preemergence with test chemicals formulated in a non-phytotoxic solvent mixture which included a surfactant. At the same time, these same crop and weed species were planted in pots containing the planting medium comprising spaghnum peat moss, vermiculite, wetting agent and starter nutrients and treated with postemergence applications of the test chemicals formulated in the same manner. Plants ranged in height from 2 to 18 cm (1- to 4-leaf stage).
(§3) Treated plants and controls were maintained in a controlled growth environment for 14 to 21 days after which time all species were compared to controls and visually evaluated. Plant response ratings, summarized in Table D, are based on a scale of 0 to 100 where 0 is no effect and 100 is complete control. A dash (-) response means no test result.

[4] = tested on: windgrass (Apera spica-venti); assay: Test D pre-/postemergence: windgrass
Excerpt: as §2, §3

[5] = tested on: surinam grass (Brachiaria decumbens); assay: Test F pre-/postemergence: surinam grass; conditions: Preemergence
Excerpt: Seeds of plant species selected from corn (Zea mays), soybean (Glycine max), velvetleaf (Abutilon theophrasti), lambsquarters (Chenopodium album), poinsettia, wild (wild poinsettia, Euphorbia heterophylla), pigweed, palmer (palmer pigweed, Amaranthus palmeri), waterhemp (common waterhemp, Amaranthus rudis), surinam grass (Brachiaria decumbens), crabgrass, Brazil (Brazilian crabgrass, Digitaria horizontalis), panicum, fall (fall panicum Panicum dichotomiflorum), crabgrass, large (large crabgrass, Digitaria sanguinalis), foxtail, giant (giant foxtail, Setaria faberii), foxtail, green (green foxtail Setaria viridis), goosegrass (Eleusine indica), ragweed (common ragweed, Ambrosia elatior), barnyardgrass (Echinochloa crus-galli), sandbur (southern sandbur, Cenchrus echinatus), arrowleaf sida (Sida rhombifolia), ryegrass, Italian (Italian ryegrass, Lolium multiflorum), dayflower, VA (Virginia (VA) dayflower, Commelina virginica), field bindweed (Convolvulus arvensis), cocklebur (common cocklebur, Xanthium strumarium), morningglory (Ipomoea coccinea), nightshade (eastern black nightshade, Solanum ptycanthum), kochia (Kochia scoparia), nutsedge, yellow (yellow nutsedge, Cyperus esculentus), johnsongrass (Sorghum halepense), smartweed (ladysthumb smartweed, Polygonum persicaria), and beggarticks (hairy beggarticks, Bidens pilosa), were planted into a silt loam soil and treated preemergence with test chemicals formulated in a non-phytotoxic solvent mixture which included a surfactant. At the same time, plants selected from these crop and weed species and also pigweed (Amaranthus retroflexus), waterhemp_RES1 (ALS/Triazine resistant common waterhemp, Amaranthus rudis) and waterhemp_RES2 (ALS/HPPD resistant common waterhemp, Amaranthus rudis) were planted in pots containing a planting medium comprising spaghnum peat moss, vermiculite, wetting agent and starter nutrients treated with postemergence applications of some of the test chemicals formulated in the same manner. Plants ranged in height from 2 to 18 cm for postemergence treatments (1- to 4-leaf stage).
as §3, with “greenhouse” for “controlled growth environment”, “days,” for “days”, “E,” for “D,”

Waterhemp = assay: Test C preemergence: waterhemp; conditions: 62 g ai/ha, scale of 0 to 100, 0 is no effect, 100 is complete control
Excerpt: Seeds of plant species selected from blackgrass (Alopecurus myosuroides), bromegrass, downy (downy bromegrass, Bromus tectorum), foxtail, green (green foxtail, Setaria viridis), ryegrass, Italian (Italian ryegrass, Lolium multiflorum), winter wheat (Triticum aestivum), wild oat (Avena fatua), galium (catchweed bedstraw, Galium aparine), bermudagrass (Cynodon dactylon), surinam grass (Brachiaria decumbens), cocklebur (common cocklebur, Xanthium strumarium), corn (Zea mays), large crabgrass (Digitaria sanguinalis), woolly cupgrass (Eriochloa villosa), foxtail, giant (giant foxtail, Setaria faberii), goosegrass (Eleusine indica), johnsongrass (Sorghum halepense), kochia (Kochia scoparia), lambsquarters (Chenopodium album), morningglory (Ipomoea coccinea), nightshade (eastern black nightshade, Solanum ptycanthum), nutsedge, yellow (yellow nutsedge, Cyperus esculentus), pigweed (Amaranthus retroflexus), ragweed (common ragweed, Ambrosia elation), soybean (Glycine max), common (oilseed) sunflower (Helianthus annuus), Russian thistle (Salsola kali) and velvetleaf (Abutilon theophrasti) were planted into a blend of loam soil and sand and treated preemergence with test chemicals formulated in a non-phytotoxic solvent mixture which included a surfactant.
as §3, with “greenhouse” for “controlled growth environment”, “13” for “14”, “15 days,” for “21 days”, “C,” for “D,”

[6] = Postemergence, 31 g ai/ha, scale 0 to 100 (0 no effect, 100 complete control)
[7] = Postemergence, 62 g ai/ha, scale 0 to 100 (0 no effect, 100 complete control)
[8] = Postemergence, 125 g ai/ha, scale 0 to 100, 0 no effect, 100 complete control
[9] = Postemergence, 16 g ai/ha, scale 0 to 100
[10] = Preemergence, 16 g ai/ha, scale 0 to 100, 0 no effect, 100 complete control
[11] = Preemergence, 31 g ai/ha, scale 0 to 100, 0 no effect, 100 complete control
[12] = Preemergence, 62 g ai/ha, scale 0 to 100
[13] = Preemergence, 125 g ai/ha, scale 0 to 100
[14] = Postemergence, 31 g ai/ha, scale 0 to 100
[15] = 16 g ai/ha, scale 0 to 100, 0 no effect, 100 complete control
[16] = 31 g ai/ha, scale 0 to 100, 0 no effect, 100 complete control

Compound | Plant response rating: Field Violet [1, 6] | Plant response rating: Field Violet [1, 7] | Plant response rating: Field Violet [1, 8] | Plant response rating, Field Violet [1, 9] | Plant response rating, Field Violet [1, 10] | Plant response rating, Field Violet [1, 11] | Plant response rating, Field Violet [1, 12] | Plant response rating, Field Violet [1, 13] | Plant response rating: Deadnettle [2, 6] | Plant response rating: Deadnettle [2, 7] | Plant response rating: Deadnettle [2, 8] | Plant response rating, Deadnettle [2, 9] | Plant response rating, Deadnettle [2, 10] | Plant response rating, Deadnettle [2, 11] | Plant response rating, Deadnettle [2, 12] | Plant response rating, Deadnettle [2, 13] | Plant response rating: Chamomile [3, 6] | Plant response rating: Chamomile [3, 7] | Plant response rating: Chamomile [3, 8] | Plant response rating, Waterhemp (Waterhemp) | also measured
Cc1nn(-c2ccc(C(F)(F)F)c(F)c2)nc1Oc1ccnc(C(F)(F)F)c1 [Compound 148] | 95 | 95 | 95 | 90 | 90 | 100 | 95 | 100 | 65 | 100 | 100 | 70 | 10 | 45 | 100 | 100 | 70 | 75 | 95 |  | Plant response rating, Chamomile [3, 9]: 60; Plant response rating, Chamomile [3, 10]: 10; Plant response rating, Chamomile [3, 11]: 20; Plant response rating, Chamomile [3, 12]: 70; Plant response rating, Chamomile [3, 13]: 100; Plant response rating: Windgrass [4, 7]: 60; Plant response rating: Windgrass [4, 8]: 80; Plant response rating, Windgrass [4, 9]: 15; Plant response rating, Windgrass [4, 14]: 30; Plant response rating, Windgrass [4, 10]: 5; Plant response rating, Windgrass [4, 11]: 10; Plant response rating, Windgrass [4, 12]: 35; Plant response rating, Windgrass [4, 13]: 90; Plant response rating, Surinam Grass [5, 15]: 25; Plant response rating, Surinam Grass [5, 16]: 40; Plant response rating, Surinam Grass ([5]; 125 g ai/ha, scale 0 to 100): 98; Plant response rating, Surinam Grass ([5]; 250 g ai/ha, scale 0 to 100): 98
CCc1nn(-c2ccc(F)cc2)nc1Cc1ccnc(C(F)(F)F)c1 [Compound 154] |  |  |  |  |  |  |  |  |  |  |  |  |  |  |  |  |  |  |  | 100 | Plant response rating, Surinam Grass [5, 15]: 0; Plant response rating, Surinam Grass [5, 16]: 10; Plant response rating, Surinam Grass ([5]; 125 g ai/ha, scale 0 to 100): 70; Plant response rating, Surinam Grass ([5]; 250 g ai/ha, scale 0 to 100): 90
Cc1nn(-c2ccc(F)c(C(F)(F)F)c2)nc1Cc1ccnc(C(F)(F)F)c1 [Compound 156] | 95 | 95 | 95 | 95 | 60 | 95 | 100 | 100 | 85 | 100 | 100 | 70 | 5 | 15 | 100 | 100 | 70 | 75 | 100 | 100 | Plant response rating, Chamomile [3, 9]: 50; Plant response rating, Chamomile [3, 10]: 10; Plant response rating, Chamomile [3, 11]: 55; Plant response rating, Chamomile [3, 12]: 100; Plant response rating, Chamomile [3, 13]: 100; Plant response rating: Windgrass [4, 7]: 70; Plant response rating: Windgrass [4, 8]: 80; Plant response rating, Windgrass [4, 9]: 25; Plant response rating, Windgrass [4, 14]: 50; Plant response rating, Windgrass [4, 10]: 0; Plant response rating, Windgrass [4, 11]: 10; Plant response rating, Windgrass [4, 12]: 85; Plant response rating, Windgrass [4, 13]: 100
FCc1nn(-c2ccc(F)cc2)nc1Oc1ccnc(C(F)(F)F)c1 [Compound 160] |  |  |  |  |  |  |  |  |  |  |  |  |  |  |  |  |  |  |  | 100 | 
CCOCc1nn(-c2ccc(F)cc2)nc1Oc1ccnc(C(F)(F)F)c1 [Compound 163] |  |  |  |  |  |  |  |  |  |  |  |  |  |  |  |  |  |  |  | 100 | 
CCOc1nn(-c2ccc(Cl)cc2)nc1Cc1ccnc(C(F)(F)F)c1 [Compound 188] |  |  |  |  |  |  |  |  |  |  |  |  |  |  |  |  |  |  |  | 100 | 
CCOc1nn(-c2ccc(F)cc2)nc1Cc1ccnc(C(F)(F)F)c1 [Compound 196, 4-[[5-ethoxy-2-(4-fluorophenyl)-2H-1,2,3-triazol-4-yl]methyl]-2-(trifluoromethyl)pyridine] | 85 | 95 | 100 | 80 | 80 | 95 | 100 | 100 | 100 | 100 | 100 | 85 | 10 | 40 | 100 | 100 | 70 | 75 | 85 |  | Plant response rating, Chamomile [3, 9]: 60; Plant response rating, Chamomile [3, 10]: 55; Plant response rating, Chamomile [3, 11]: 85; Plant response rating, Chamomile [3, 12]: 100; Plant response rating, Chamomile [3, 13]: 100; Plant response rating: Windgrass [4, 7]: 95; Plant response rating: Windgrass [4, 8]: 95; Plant response rating, Windgrass [4, 9]: 60; Plant response rating, Windgrass [4, 14]: 75; Plant response rating, Windgrass [4, 10]: 20; Plant response rating, Windgrass [4, 11]: 100; Plant response rating, Windgrass [4, 12]: 100; Plant response rating, Windgrass [4, 13]: 100; Plant response rating, Surinam Grass ([5]; 8 g ai/ha, scale 0 to 100, 0 no effect, 100 complete control): 0; Plant response rating, Surinam Grass [5, 16]: 15; Plant response rating, Surinam Grass ([5]; 125 g ai/ha, scale 0 to 100): 100
